Experimental data reported in patent US20080014323A1, “ANTIOXIDANT COMBINATIONS FOR USE IN FEED RATIONS TO IMPROVE ANTIOXIDANT STATUS OF RUMINANTS” (NOVUS INTERNATIONAL INC., priority 2006, published 2008).

Assays:
[1] = Oil stability index (OSI) induction time; assay type: physicochemical; details: soybean oil; 500 ppm; FIG. 1
[2] = Active oxygen method (AOM): peroxide value of oils or fats after oxidative stress; assay type: physicochemical; details: soybean oil subjected to oxidative stress; 500 ppm; FIG. 1

What does the source list for `CCOc1ccc2c(c1)C(C)=CC(C)(C)N2` [ETX, 6-ethoxy-1,2-dihydro-2,2,4-trimethylquinoline]?
OSI induction time [1]: about 6 hr; peroxide values [2]: about 11 meq
